“Also recorded” adds a separate entry of the source.
Key:
human lymphoma lines = assay: Proliferation of human lymphoma lines (FIG. 5); assay type: cell-based; conditions: 1-100 μM, 24 hours, various human lymphoma lines
Method: (§1) Cell Counting. A volume of cells was removed from culture medium and mixed with an equal volume of 0.4% Trypan blue stain. Then, 10 μL were taken out and placed into a hemocytometer for cell counting. Viable cell counts were used as a measure of cell proliferation.
(§2) All RCC cell lines were maintained in Dulbecco's Modified Eagle Medium (DMEM) supplemented with 10% fetal bovine serum (FBS), 1% L-glutamine, 1% sodium pyruvate, 1% nonessential amino acids, and Antibiotic-Antimycotic. All lymphoma lines were maintained in RPMI 1640 medium supplemented with 10% FBS, 50 μM β-mercaptoethanol, and […]

mouse-derived T-ALL line = assay: Response in mouse-derived T-ALL line at high, low or no MYC (FIG. 6); assay type: cell-based; conditions: 1-100 μM; MYC levels controlled by doxycycline-off system
Method: as §1, §2

[1] = test system: mouse-derived MYC-induced RCC E28 line; assay: RCC E28 proliferation / cell viability (FIG. 7, 10B, 12B); assay type: cell-based
Method: as §1, §2

[2] = test system: mouse derived MYC-induced HCC EC4 line; assay: HCC EC4 proliferation / cell viability (FIG. 8, 9, 12A); assay type: cell-based; conditions: for cell viability as compared to FSG67: HCC EC4, 1-100 μM dose, two days (48 hours) post treatment
Method: as §1

fatty acids and PGs = assay: Lipid profile after TOFA or FSG67 (FIG. 11); design: species or system mouse
Method: DESI-MSI was used for generating two-dimensional chemical maps of 16 μm-thick tissue sections in order to assess the lipid profiles of tissue. The tissue samples were snap-frozen in liquid nitrogen and stored at −80° C. before processing. The frozen samples were cut into 16 μm sections at −21° C. using a cryomicrotome and thaw-mounted onto microscope slides. The slides were stored at −80° C. Prior to analysis, the slides were dried under a vacuum in a desiccator for approximately 20 minutes. A laboratory-built DESI-MSI source coupled to an LTQ-Orbitrap-XL mass spectrometer (Thermo Fisher Scientific) was utilized, and DESI-MSI was performed in the negative ion mode at m/z 90-1,000 with a spatial resolution of 200 μm (FIG. S1). The Orbitrap was used as the mass analyzer while set to 60,000 resolving power. Mouse tissue samples were imaged by this method using dimethylformamide and acetonitrile (1:1) as a solvent system at a flow rate of 0.5 μL/min. The N2 pressure was set to 175 psi. In DESI-MSI, charged solvents are sprayed onto the tissue, resulting in molecules, such as metabolites and lipids, to be dissolved and extracted from the tissue surface, then transferred into a mass spectrometer for measurement of the mass-to-charge (m/z) ratios. The software ImgGenerator (freeware, www.msimaging.net/) was used for converting raw files into 2D images. Spatially accurate ion images were assembled using BioMap software (freeware, www.maldi-msi.org/). After DESI-MSI, the same tissue section was subjected to a standard H&E staining for histopathologic evaluation using light microscopy. DESI-MS ion images were compared with optical microscopy images of the same-tissue H&E-stained tissue sections for delineation of tumor foci. Tandem MS analyses were performed using both the Orbitrap and the linear ion trap for mass analysis to confirm lipid identity. The LipidMaps database (www.lipidmaps.org/) was also used to assist in lipid identification.

MYC-induced tumors = MYC-induced tumors in xenograft and primary mouse models; assay type: in vivo
From the text: A Tet system was used to conditionally activate MYC, in the liver, kidney, lymphocyte, and lung tissue of transgenic mice. In this system, […] In the absence of tetracycline, transcription of the oncogene is activated. Oncogene expression was activated in mice by removal of doxycycline (a stable analog of tetracycline) in the mice's drinking water. All animal studies were approved by the Stanford University Administrative Panel on Laboratory Animal Care (APLAC).

[3] = target: glycerol 3-phosphate acyltransferase (GPAT); conditions: inhibitor of GPAT; cited from earlier work
diet-induced obese mice = conditions: cited from earlier work
[4] = test system: human MYC-induced Burkitt's Lymphoma line P493; assay: BCL P493 cell viability (FIG. 10A, 12C); assay type: cell-based; conditions: BCL P493, 1-100 μM dose, five days post treatment
Method: as §1, §2

With CCCCCCCCCS(=O)(=O)Nc1ccccc1C(=O)O [FSG67, 2-(Nonylsulfonamido) benzoic acid] the cell proliferation (human lymphoma lines) was “suppresses cell proliferation”, the “therapeutic response, high MYC vs. low or no MYC” value (mouse-derived T-ALL line) was “induces therapeutic response in high MYC (no dox) vs. low or no MYC; also recorded: induced a therapeutic response in high MYC (no dox)” and the “RCC E28 proliferation” value ([1]; 1-100 μM) was “suppresses RCC E28 proliferation”. The “HCC EC4 proliferation” value ([2]; 1-100 μM) was “suppresses HCC EC4 proliferation”, the “depletion of lipids (fatty acids, PGs)” value (fatty acids and PGs) was “depletes only PGs” and the “levels of fatty acids upstream of GPAT (oleate)” value (fatty acids and PGs) was “not perturbing levels of fatty acids that are upstream of GPAT”. For the same compound, the MYC-induced tumorigenesis (MYC-induced tumors) was “MYC-induced tumorigenesis was blocked”, the metabolic changes (MYC-induced tumors) was “metabolic changes were suppressed” and the tumor regression (MYC-induced tumors) was “tumors regressed”. For the same compound, the IC50 [3] was 24 µM, the “body weight and adiposity” value (diet-induced obese mice) was “decrease body weight and adiposity” and the “energy utilization as fatty acid oxidation” value (diet-induced obese mice) was “enhance energy utilization as fatty acid oxidation”. For the same compound, the food intake (diet-induced obese mice) was “reduce food intake”, the hepatic steatosis (diet-induced obese mice) was “reverse hepatic steatosis” and the insulin sensitivity (diet-induced obese mice) was “enhance insulin sensitivity”.
With [2H]c1c([2H])c([2H])c(C(=O)O)c(NS(=O)(=O)CCCCCCCCC)c1[2H] [GFZ1.1] the “cell viability as compared to FSG67” value [2] was “significant difference in cell viability”.
For [2H]C([2H])([2H])C([2H])([2H])C([2H])([2H])C([2H])([2H])C([2H])([2H])C([2H])([2H])C([2H])([2H])C([2H])([2H])C([2H])([2H])S(=O)(=O)Nc1ccccc1C(=O)OC [GFZ1.2], the “cell viability as compared to FSG67” value [2] was “significant difference in cell viability”.
For CCCCCCCCCS(=O)(=O)Nc1ccccc1C(=O)OC [GFZ1.5], the “cell viability as compared to FSG67” value ([1]; RCC E28, 1-100 μM dose, two days (48 hours) post treatment) was “significant difference in cell viability”, the “cell viability as compared to FSG67” value [2] was “significant difference in cell viability” and the “cell viability as compared to FSG67” value [4] was “significant difference in cell viability”.
With CCCCCCCCCCCCCCOc1ccc(C(=O)O)o1 [TOFA] the “depletion of lipids (fatty acids, PGs)” value (fatty acids and PGs) was “depletes all fatty acids”.

Source: patent publication US11702394B2, “Inhibitors of phospholipid synthesis and methods of use” (The Board of Trustees of the Leland Stanford Junior …, priority 2018, dated 2023)
